Experimental data reported in patent US9783527B2, “Indazole ureas and method of use” (AbbVie Inc., priority 2014, dated 2017).
pIC50: −log10 of the molar value.

Each compound was assayed against human Nav1.7 (Homo sapiens (Human), UniProt Q15858) (assay: FRET-based membrane potential assay, recombinant human sodium channel Nav1.7). Settings: HEK293 cells stably expressing recombinant human Nav1.7; depolarization with veratridine (EC80) + scorpion venom.
Type: cell-based
Method: FRET-Based Membrane Potential Assays.
Recombinant, Human Sodium Channel, Nav1.7.
Two days prior to the experiment, frozen HEK293 cells stably expressing recombinant human Nav1.7 were quickly thawed and plated at 25,000 cells/well in growth medium [DMEM (Invitrogen #11965) with 10% HI FBS (Invitrogen #10082), 2 mM glutamine, 100 units/mL penicillin, 0.1 mg/mL streptomycin (PSG, Sigma #G1146), and 500 μg/mL Geneticin (Invitrogen #10131)] in black-walled, clear-bottom 384-well poly-D-lysine-coated assay plates (Greiner Bio-One, Frickenhausen, Germany) and incubated in a humidified 5% CO2 incubator at 37° C. On the day of the assay, medium was removed by aspiration, and cells were washed with assay buffer [HBSS (Invitrogen, Carlsbad, Calif.) containing 20 mM HEPES (Invitrogen, Carlsbad, Calif.)]. After washing, 30 μL assay buffer containing the fluorescent voltage-sensor probe CC2-DMPE (Invitrogen, Carlsbad, Calif.) at 20 μM and 0.01% pluronic F-127 (Invitrogen, Carlsbad, Calif.) was added to the cells. Cells were incubated for 40 minutes at room temperature in the dark. Following the incubation, the cells were washed and 30 μL assay buffer containing 2.5 μM DiSBAC2(3) substrate (Invitrogen, Carlsbad, Calif.) and 0.5 mM VABSC-1 (Invitrogen, Carlsbad, Calif.) was added to the cells. The cells were incubated for 90 minutes at room temperature in the dark. Fluorescence readings were made using a FLIPR®^TETRA (Molecular Devices, Sunnyvale Calif.) equipped with voltage-sensor probe optics. At the start of each experiment the optimal (EC80) concentration of depolarizing agent (veratridine) was determined by testing a dilution curve of assay buffer containing veratridine (Sigma-Aldrich, St. Louis, Mo.) and 1 mg/mL scorpion venom (SVqq, from Leiurus quinquestriatus; Sigma-Aldrich, St. Louis, Mo.). […] Test compounds in the daughter plate were diluted to (˜3×) solutions in assay buffer immediately before assaying. Using the FLIPR®^TETRA, 20 μL of the (3×) compound solutions were first added to the cells, then 20 μL of depolarizing solution (3×EC80 veratridine+SVqq) were added 3 minutes later to activate the channel. Changes in fluorescence were measured at wavelengths of 440-480 nm and 565-625 nm over the course of the experimental run. Membrane depolarization was expressed as a ratio of the maximum F440-480 nm/F565-625 nm reading above average baseline F440-480 nm/F565-625 nm reading. IC50 values were calculated from curve fits of the ratio data using a four-parameter logistic Hill equation (Accelrys Assay Explorer 3.3 Client, Accelrys, San Diego, Calif.) with percent inhibition plotted against compound concentration.

Sequence of human Nav1.7 (Q15858 whole entry): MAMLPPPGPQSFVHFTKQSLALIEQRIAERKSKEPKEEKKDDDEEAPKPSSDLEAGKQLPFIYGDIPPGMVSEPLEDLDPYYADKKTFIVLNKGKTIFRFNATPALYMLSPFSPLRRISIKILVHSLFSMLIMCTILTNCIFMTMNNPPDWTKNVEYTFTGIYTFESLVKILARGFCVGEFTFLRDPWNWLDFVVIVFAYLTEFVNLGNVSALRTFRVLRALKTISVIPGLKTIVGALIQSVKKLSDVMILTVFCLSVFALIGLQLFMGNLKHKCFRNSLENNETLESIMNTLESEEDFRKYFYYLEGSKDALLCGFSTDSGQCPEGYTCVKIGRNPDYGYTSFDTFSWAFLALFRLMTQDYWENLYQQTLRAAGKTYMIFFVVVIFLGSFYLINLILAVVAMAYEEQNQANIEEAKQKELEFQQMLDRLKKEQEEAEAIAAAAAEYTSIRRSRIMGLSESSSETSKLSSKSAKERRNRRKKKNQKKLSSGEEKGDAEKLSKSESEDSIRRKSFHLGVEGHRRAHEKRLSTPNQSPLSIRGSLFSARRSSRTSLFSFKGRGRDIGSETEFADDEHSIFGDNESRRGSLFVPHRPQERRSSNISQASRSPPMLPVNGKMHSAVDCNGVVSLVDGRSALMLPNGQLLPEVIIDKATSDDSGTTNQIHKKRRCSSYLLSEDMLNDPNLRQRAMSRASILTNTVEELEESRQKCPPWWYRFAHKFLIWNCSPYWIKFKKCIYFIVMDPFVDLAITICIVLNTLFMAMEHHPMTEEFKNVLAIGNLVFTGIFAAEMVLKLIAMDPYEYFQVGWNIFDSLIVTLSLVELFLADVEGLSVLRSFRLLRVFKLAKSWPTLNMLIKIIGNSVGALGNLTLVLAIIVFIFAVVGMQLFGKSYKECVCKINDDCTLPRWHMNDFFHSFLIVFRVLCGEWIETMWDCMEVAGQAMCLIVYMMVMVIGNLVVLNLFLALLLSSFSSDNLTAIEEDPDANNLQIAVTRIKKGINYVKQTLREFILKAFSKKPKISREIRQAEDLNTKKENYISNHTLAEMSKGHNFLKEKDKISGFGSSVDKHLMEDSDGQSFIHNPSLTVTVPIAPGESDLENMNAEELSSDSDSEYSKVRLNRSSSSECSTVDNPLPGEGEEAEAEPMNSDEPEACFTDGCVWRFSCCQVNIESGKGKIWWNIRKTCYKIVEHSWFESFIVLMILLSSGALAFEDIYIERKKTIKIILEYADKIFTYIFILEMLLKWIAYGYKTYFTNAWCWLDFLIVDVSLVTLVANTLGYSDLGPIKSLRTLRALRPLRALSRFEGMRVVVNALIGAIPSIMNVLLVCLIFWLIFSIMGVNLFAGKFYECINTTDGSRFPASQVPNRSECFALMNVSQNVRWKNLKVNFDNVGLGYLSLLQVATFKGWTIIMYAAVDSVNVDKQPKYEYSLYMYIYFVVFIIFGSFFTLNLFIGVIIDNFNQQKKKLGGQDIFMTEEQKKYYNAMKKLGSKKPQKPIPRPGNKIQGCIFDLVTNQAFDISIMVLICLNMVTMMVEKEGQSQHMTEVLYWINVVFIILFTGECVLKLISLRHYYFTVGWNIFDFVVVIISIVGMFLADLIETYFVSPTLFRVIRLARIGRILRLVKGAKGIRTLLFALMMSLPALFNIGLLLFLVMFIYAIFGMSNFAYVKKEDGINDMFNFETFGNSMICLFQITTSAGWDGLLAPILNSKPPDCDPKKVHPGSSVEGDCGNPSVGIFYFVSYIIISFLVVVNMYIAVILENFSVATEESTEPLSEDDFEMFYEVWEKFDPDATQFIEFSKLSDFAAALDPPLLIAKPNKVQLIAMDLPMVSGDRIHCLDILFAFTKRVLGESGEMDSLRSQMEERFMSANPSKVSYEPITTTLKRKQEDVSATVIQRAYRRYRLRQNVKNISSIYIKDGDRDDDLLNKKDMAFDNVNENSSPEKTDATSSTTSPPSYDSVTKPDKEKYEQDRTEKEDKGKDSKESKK

Row | SMILES | pIC50
1 | O=C(CC1CCCC1)CN1CCN(c2cccc3c2cnn3-c2ccccc2F)C1=O [Example 134, 1-(3-cyclopentyl-2-oxopropyl)-3-[1-(2-fluorophenyl)-1H-indazol-4-yl]imidazolidin-2-one] | 5.90
2 | O=C1N(CC(=O)N2[C@H]3CC[C@@H]2CC3)CCN1c1cccc2c1cnn2-c1ccccc1F [Example 212, 1-{2-[(1s,4s)-7-azabicyclo[2.2.1]hept-7-yl]-2-oxoethyl}-3-[1-(2-fluorophenyl)-1H-indazol-4-yl]imidazolidin-2-one] | 5.94
3 | C[C@@H](NC(=O)CN1CCN(c2cccc3c2cnn3-c2ccccc2F)C1=O)c1ccccc1 [Example 176, 2-{3-[1-(2-fluorophenyl)-1H-indazol-4-yl]-2-oxoimidazolidin-1-yl}-N-[(1R)-1-phenylethyl]acetamide] | 6.01
4 | O=C(Nc1ccccc1)[C@H]1CCCN1C(=O)CN1CCN(c2cccc3c2cnn3-c2ccccc2F)C1=O [Example 120, 1-({3-[1-(2-fluorophenyl)-1H-indazol-4-yl]-2-oxoimidazolidin-1-yl}acetyl)-N-phenyl-D-prolinamide] | 5.38
5 | CCOCC1(F)CCN(C(=O)CN2CCN(c3cccc4c3cnn4-c3ccccc3F)C2=O)C1 (stereo not drawn) [Example 98, 1-{2-[3-(ethoxymethyl)-3-fluoropyrrolidin-1-yl]-2-oxoethyl}-3-[1-(2-fluorophenyl)-1H-indazol-4-yl]imidazolidin-2-one] | 5.84
6 | Cc1nc(CN2CCN(c3cccc4c3cnn4-c3ccccc3F)C2=O)c(C)o1 [Example 227, 1-[(2,5-dimethyl-1,3-oxazol-4-yl)methyl]-3-[1-(2-fluorophenyl)-1H-indazol-4-yl]imidazolidin-2-one] | 6.06
7 | CC[C@@H](O)CN1CCN(c2cccc3c2cnn3-c2ccccc2F)C1=O [Example 160, 1-[1-(2-fluorophenyl)-1H-indazol-4-yl]-3-[(2R)-2-hydroxybutyl]imidazolidin-2-one] | 5.45
8 | O=C1N(c2cccc3c2cnn3-c2ccccc2F)CCN1c1cnn2cccnc12 [Example 190, 1-[1-(2-fluorophenyl)-1H-indazol-4-yl]-3-(pyrazolo[1,5-a]pyrimidin-3-yl)imidazolidin-2-one] | 5.96
9 | CN(CC1CCOCC1)C(=O)CN1CCN(c2cccc3c2cnn3-c2ccccc2F)C1=O [Example 68, 2-{3-[1-(2-fluorophenyl)-1H-indazol-4-yl]-2-oxoimidazolidin-1-yl}-N-methyl-N-(tetrahydro-2H-pyran-4-ylmethyl)acetamide] | 5.45
10 | CC(C)CNC(=O)CN1CCN(c2cccc3c2cnn3-c2ccccc2F)C1=O [Example 92, 2-{3-[1-(2-fluorophenyl)-1H-indazol-4-yl]-2-oxoimidazolidin-1-yl}-N-isobutylacetamide] | 5.73
11 | O=C1N(Cc2cccnc2)CCN1c1cccc2c1cnn2-c1ccccc1F [Example 198, 1-[1-(2-fluorophenyl)-1H-indazol-4-yl]-3-(pyridin-3-ylmethyl)imidazolidin-2-one] | 5.91
12 | O=C(CN1CCN(c2cccc3c2cnn3-c2ccccc2F)C1=O)N1CCC2(C1)OCCO2 [Example 102, 1-[2-(1,4-dioxa-7-azaspiro[4.4]non-7-yl)-2-oxoethyl]-3-[1-(2-fluorophenyl)-1H-indazol-4-yl]imidazolidin-2-one] | 5.46
13 | NC(=O)C(=O)N1CC(N2CCN(c3cccc4c3cnn4-c3ccccc3F)C2=O)C1 [Example 270, 2-(3-{3-[1-(2-fluorophenyl)-1H-indazol-4-yl]-2-oxoimidazolidin-1-yl}azetidin-1-yl)-2-oxoacetamide] | 5.23
14 | O=C1N(Cc2ccncn2)CCN1c1cccc2c1cnn2-c1ccccc1F [Example 222, 1-[1-(2-fluorophenyl)-1H-indazol-4-yl]-3-(pyrimidin-4-ylmethyl)imidazolidin-2-one] | 4.95
15 | COc1cccc(C(=O)CN2CCN(c3cccc4c3cnn4-c3ccccc3F)C2=O)c1 [Example 149, 1-[1-(2-fluorophenyl)-1H-indazol-4-yl]-3-[2-(3-methoxyphenyl)-2-oxoethyl]imidazolidin-2-one] | 5.53
16 | O=C1N(Cc2cocn2)CCN1c1cccc2c1cnn2-c1ccc(C(F)(F)F)cc1 [Example 242, 1-(1,3-oxazol-4-ylmethyl)-3-{1-[4-(trifluoromethyl)phenyl]-1H-indazol-4-yl}imidazolidin-2-one] | 5.48
17 | O=C1N(c2cncnc2)CCN1c1cccc2c1cnn2-c1ccccc1F [Example 138, 1-[1-(2-fluorophenyl)-1H-indazol-4-yl]-3-(pyrimidin-5-yl)imidazolidin-2-one] | 5.48
18 | CC(C)CS(=O)(=O)N1CCN(c2cccc3c2cnn3-c2ccccc2F)C1=O [Example 80, 1-[1-(2-fluorophenyl)-1H-indazol-4-yl]-3-(isobutylsulfonyl)imidazolidin-2-one] | 5.62
19 | O=C(CN1CCN(c2cccc3c2cnn3-c2ccccc2F)C1=O)N1CCN2CCC[C@H]2C1 [Example 99, 1-[1-(2-fluorophenyl)-1H-indazol-4-yl]-3-{2-[(8aS)-hexahydropyrrolo[1,2-c]pyrazin-2(1H)-yl]-2-oxoethyl}imidazolidin-2-one] | 6.32
20 | CC(C)C[C@@](C)(O)CN1CCN(c2cccc3c2cnn3-c2ccccc2F)C1=O [Example 167, 1-[1-(2-fluorophenyl)-1H-indazol-4-yl]-3-[(2R)-2-hydroxy-2,4-dimethylpentyl]imidazolidin-2-one] | 6.05
21 | O=C1N(CC2(OCc3ccccc3)CC2)CCN1c1cccc2c1cnn2-c1ccccc1F [Example 229, 1-{[1-(benzyloxy)cyclopropyl]methyl}-3-[1-(2-fluorophenyl)-1H-indazol-4-yl]imidazolidin-2-one] | 5.04
22 | O=C1C(N2CCN(c3cccc4c3cnn4-c3ccccc3F)C2=O)CCN1Cc1ccccc1 (stereo not drawn) [Example 232, 1-(1-benzyl-2-oxopyrrolidin-3-yl)-3-[1-(2-fluorophenyl)-1H-indazol-4-yl]imidazolidin-2-one] | 5.94
23 | CN1[C@H]2CC[C@@H]1CN(C(=O)CN1CCN(c3cccc4c3cnn4-c3ccccc3F)C1=O)CC2 [Example 114, 1-[1-(2-fluorophenyl)-1H-indazol-4-yl]-3-{2-[(1R,6S)-9-methyl-3,9-diazabicyclo[4.2.1]non-3-yl]-2-oxoethyl}imidazolidin-2-one] | 4.84
24 | O=C(CN1CCN(c2cccc3c2cnn3-c2ccccc2F)C1=O)N1CCCC2(CC1)OCCO2 [Example 110, 1-[2-(1,4-dioxa-8-azaspiro[4.6]undec-8-yl)-2-oxoethyl]-3-[1-(2-fluorophenyl)-1H-indazol-4-yl]imidazolidin-2-one] | 5.55
25 | CC(C)[C@@H]1CCCN1C(=O)CN1CCN(c2cccc3c2cnn3-c2ccccc2F)C1=O [Example 125, 1-[1-(2-fluorophenyl)-1H-indazol-4-yl]-3-{2-[(2S)-2-isopropylpyrrolidin-1-yl]-2-oxoethyl}imidazolidin-2-one] | 5.85
26 | O=C1N(CC2CC2)CCN1c1cccc2c1cnn2-c1ccccc1F [Example 194, 1-(cyclopropylmethyl)-3-[1-(2-fluorophenyl)-1H-indazol-4-yl]imidazolidin-2-one] | 6.21
27 | O=C1N(c2cccc3c2cnn3-c2ccccc2F)CCN1S(=O)(=O)c1cccs1 [Example 79, 1-[1-(2-fluorophenyl)-1H-indazol-4-yl]-3-(2-thienylsulfonyl)imidazolidin-2-one] | 5.64
